Laboratory results taken from ChEMBL document CHEMBL1128752, “1,2,3-Trisubstituted cyclohexyl substance P antagonists: significance of the ring nitrogen in piperidine-based NK-1 receptor antagonists” (Bioorg Med Chem Lett, 1995).

Molecular target: T1, Substance-P receptor (Homo sapiens, UniProt P25103)
Test: Binding affinity towards Neurokinin -1(NK-1) receptor of human by using [125I]- Tyr8 substance P as a radioligand in CHO cells
Type: cell-based
Settings: not given

T1 sequence (P25103 whole entry): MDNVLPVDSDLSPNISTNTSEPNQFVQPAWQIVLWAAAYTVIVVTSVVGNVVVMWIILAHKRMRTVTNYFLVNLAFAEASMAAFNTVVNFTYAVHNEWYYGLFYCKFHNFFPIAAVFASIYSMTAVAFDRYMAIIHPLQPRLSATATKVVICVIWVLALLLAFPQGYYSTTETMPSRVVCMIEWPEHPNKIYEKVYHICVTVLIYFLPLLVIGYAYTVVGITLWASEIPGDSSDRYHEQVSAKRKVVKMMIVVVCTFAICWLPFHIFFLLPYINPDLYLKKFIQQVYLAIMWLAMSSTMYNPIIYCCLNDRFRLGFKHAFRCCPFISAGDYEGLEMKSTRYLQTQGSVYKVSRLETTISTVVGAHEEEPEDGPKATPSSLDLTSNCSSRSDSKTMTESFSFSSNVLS

SMILES | IC50
O=C(C[C@H]1CCC[C@H](OCc2cc(C(F)(F)F)cc(C(F)(F)F)c2)[C@@H]1c1ccccc1)NCc1ccncc1 | 7 nM
O=C(NCc1cccnc1)NC[C@H]1CCC[C@H](OCc2cc(C(F)(F)F)cc(C(F)(F)F)c2)[C@@H]1c1ccccc1 | 34 nM
CN1CCC[C@H](OCc2cc(C(F)(F)F)cc(C(F)(F)F)c2)[C@@H]1c1ccccc1 | 14 nM
NC(=O)C[C@H]1CCC[C@H](OCc2cc(C(F)(F)F)cc(C(F)(F)F)c2)[C@@H]1c1ccccc1 (stereo in doubt; 19a) | 3 nM
FC(F)(F)c1cc(CO[C@H]2CCCC[C@H]2c2ccccc2)cc(C(F)(F)F)c1 | 2630 nM
O=C(C[C@H]1CCC[C@H](OCc2cc(C(F)(F)F)cc(C(F)(F)F)c2)[C@@H]1c1ccccc1)NCc1cccnc1 | 3.7 nM
NC(=O)C[C@H]1CCC[C@H](OCc2cc(C(F)(F)F)cc(C(F)(F)F)c2)[C@@H]1c1ccccc1 (stereo in doubt; 22) | 1.5 nM
FC(F)(F)c1cc(CO[C@H]2CCCO[C@H]2c2ccccc2)cc(C(F)(F)F)c1 | 881 nM
NC(=O)NC[C@H]1CCC[C@H](OCc2cc(C(F)(F)F)cc(C(F)(F)F)c2)[C@@H]1c1ccccc1 | 6.7 nM
NC(=O)C[C@@H]1CCC[C@@H](OCc2cc(C(F)(F)F)cc(C(F)(F)F)c2)[C@H]1c1ccccc1 | ≥ 157 nM
OC(COCc1cc(C(F)(F)F)cc(C(F)(F)F)c1)C(c1ccccc1)c1ccccc1 (configuration not stated) | 17 nM

Molecular target: T1, Substance-P receptor
Settings: CHO
Description: Dissociation constant towards Neurokinin -1(NK-1) receptor of human by using [125I]- Tyr8 substance P as a radioligand in CHO cells

SMILES | pKa
FC(F)(F)c1cc(CO[C@H]2CCCN[C@H]2c2ccccc2)cc(C(F)(F)F)c1 | 8.3
